For one data set, the system named is HIV-1 (IIIB). Nature of the data set: Antiviral assay in MT-4 cells. It is filed as cell-based. The settings on record: Human immunodeficiency virus 1, MT4, 120 h; HIV-1 IIIB in MT-4 cells, 5 days incubation, Cell Titer Glo; read-out: MT4 EC50. In outline: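 Read-out: CellTiter-Glo luminescence after 5 days at 37 °C, reflecting survival of MT-4 cells infected with HIV-1 IIIB (1:250 fresh stock dilution) versus mock-infected. Compounds serially diluted into RPMI with 10% FBS; AZT at 5 μM served as positive control.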
In general terms: Cellular ATP, detected with luciferase, serves as a proxy for viable cell number.

A short description of data set [1]: Cytotoxicity assay in MT-4 cells. The class given is cell-based. The settings on record: human; uninfected MT-4 cells, 5 days incubation, Cell Titer Glo; read-out: MT4 CC50. In outline:
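Viability read by Cell Titer Glo luminescence after 5 days at 37 °C. MT-4 cells, not infected, in complete RPMI (10% FBS), received compound dilution series. Base cytotoxicity set with […] puromycin.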

For orientation: EC50 means the concentration at which the effect is half-maximal. What is called CC50 is the concentration that lowers cell viability or growth by half. Take `CCCCCCCCCCCCCCCCOC(=O)Oc1c2n(cc(C(=O)NCc3ccc(F)cc3F)c1=O)[C@@H]1CN(C2=O)[C@@H](C)CC[C@]12CC(OC)=NO2` [Example 145, (3′S,5S,7′R)-10′-((2,4-difluorobenzyl)carbamoyl)-3-methoxy-3′-methyl-1′,11′-dioxo-1′,4′,5′,11′-tetrahydro-3′H,4H,7′H-spiro[isoxazole-5,6′-[2,7]methanopyrido[1,2-a][1,4]diazonin]-12′-yl hexadecyl carbonate]: in the data set with HIV-1 (IIIB), the EC50 came out at 5.93 nM. The CC50 at 5 days in data set [1] is at least 50 µM.
As to `CCCCCCCCCCCCCCCCCCOC(=O)Oc1c2n(cc(C(=O)NCc3ccc(F)cc3F)c1=O)[C@@H]1CN(C2=O)[C@@H](C)CC[C@]12CC(C)=NO2` [Example 146, (3′S,5S,7′R)-10′-((2,4-difluorobenzyl)carbamoyl)-3,3′-dimethyl-1′,11′-dioxo-1′,4′,5′,11′-tetrahydro-3′H,4H,7′H-spiro[isoxazole-5,6′-[2,7]methanopyrido[1,2-a][1,4]diazonin]-12′-yl octadecyl carbonate], the EC50 in the data set with HIV-1 (IIIB) was found to be 7.56 nM. The CC50 at 5 days in data set [1] is at least 50 µM.
Turning to `CCCCCCCCCCCCCCCCCCOC(=O)Oc1c2n(cc(C(=O)NCc3ccc(F)cc3F)c1=O)[C@@H]1CN(C2=O)[C@@H](C)CC[C@]12CC(OC)=NO2` [Example 147, (3′S,5S,7′R)-10′-((2,4-difluorobenzyl)carbamoyl)-3-methoxy-3′-methyl-1′,11′-dioxo-1′,4′,5′,11′-tetrahydro-3′H,4H,7′H-spiro[isoxazole-5,6′-[2,7]methanopyrido[1,2-a][1,4]diazonin]-12′-yl octadecyl carbonate], the EC50 in the data set with HIV-1 (IIIB) turned out to be 7.16 nM. In data set [1], the CC50 at 5 days was at least 50 µM.
Turning to `CC1=NO[C@@]2(CC[C@H](C)N3C[C@H]2n2cc(C(=O)NCc4ccc(F)cc4F)c(=O)c(OC(=O)OCC(C)C)c2C3=O)C1` [Example 148, (3′S,5S,7′R)-10′-((2,4-difluorobenzyl)carbamoyl)-3,3′-dimethyl-1′,11′-dioxo-1′,4′,5′,11′-tetrahydro-3′H,4H,7′H-spiro[isoxazole-5,6′-[2,7]methanopyrido[1,2-a][1,4]diazonin]-12′-yl isobutyl carbonate], in the data set on HIV-1 (IIIB), the EC50 is 1.85 nM. In addition, the CC50 at 5 days in data set [1] stood at 16.1 µM.
In the case of `COC1=NO[C@@]2(CC[C@H](C)N3C[C@H]2n2cc(C(=O)NCc4ccc(F)cc4F)c(=O)c(OC(=O)OCC(C)C)c2C3=O)C1` [Example 149, (3′S,5S,7′R)-10′-((2,4-difluorobenzyl)carbamoyl)-3-methoxy-3′-methyl-1′,11′-dioxo-1′,4′,5′,11′-tetrahydro-3′H,4H,7′H-spiro[isoxazole-5,6′-[2,7]methanopyrido[1,2-a][1,4]diazonin]-12′-yl isobutyl carbonate], the EC50 with HIV-1 (IIIB) was found to be 2.17 nM. Further, the CC50 at 5 days in data set [1] was found to be 15.9 µM.
Regarding `CC1=NO[C@@]2(CC[C@H](C)N3C[C@H]2n2cc(C(=O)NCc4ccc(F)cc4F)c(=O)c(OC(=O)OCCC(C)C)c2C3=O)C1` [Example 150, (3′S,5S,7′R)-10′-((2,4-difluorobenzyl)carbamoyl)-3,3′-dimethyl-1′,11′-dioxo-1′,4′,5′,11′-tetrahydro-3′H,4H,7′H-spiro[isoxazole-5,6′-[2,7]methanopyrido[1,2-a][1,4]diazonin]-12′-yl isopentyl carbonate], the EC50 in the data set with HIV-1 (IIIB) came to 0.153 nM. The CC50 at 5 days in data set [1] was determined as 16 µM.
On the same counts, the results for `COC1=NO[C@@]2(CC[C@H](C)N3C[C@H]2n2cc(C(=O)NCc4ccc(F)cc4F)c(=O)c(OC(=O)OCCC(C)C)c2C3=O)C1` [Example 151, (3′S,5S,7′R)-10′-((2,4-difluorobenzyl)carbamoyl)-3-methoxy-3′-methyl-1′,11′-dioxo-1′,4′,5′,11′-tetrahydro-3′H,4H,7′H-spiro[isoxazole-5,6′-[2,7]methanopyrido[1,2-a][1,4]diazonin]-12′-yl isopentyl carbonate] are 0.17 nM and 18.5 µM.
For `CC1=NO[C@@]2(CC[C@H](C)N3C[C@H]2n2cc(C(=O)NCc4ccc(F)cc4F)c(=O)c(OC(=O)OCCCC(C)C)c2C3=O)C1` [Example 152, (3′S,5S,7′R)-10′-((2,4-difluorobenzyl)carbamoyl)-3,3′-dimethyl-1′,11′-dioxo-1′,4′,5′,11′-tetrahydro-3′H,4H,7′H-spiro[isoxazole-5,6′-[2,7]methanopyrido[1,2-a][1,4]diazonin]-12′-yl (4-methylpentyl) carbonate], in that order: 0.573 nM and 14.9 µM.
`COC1=NO[C@@]2(CC[C@H](C)N3C[C@H]2n2cc(C(=O)NCc4ccc(F)cc4F)c(=O)c(OC(=O)OCCCC(C)C)c2C3=O)C1` [Example 153, (3′S,5S,7′R)-10′-((2,4-difluorobenzyl)carbamoyl)-3-methoxy-3′-methyl-1′,11′-dioxo-1′,4′,5′,11′-tetrahydro-3′H,4H,7′H-spiro[isoxazole-5,6′-[2,7]methanopyrido[1,2-a][1,4]diazonin]-12′-yl (4-methylpentyl) carbonate]: the EC50 in the data set with HIV-1 (IIIB) came out at 0.648 nM. In addition, the CC50 at 5 days in data set [1] was 23.6 µM.
Consider `CC1=NO[C@@]2(CC[C@H](C)N3C[C@H]2n2cc(C(=O)NCc4ccc(F)cc4F)c(=O)c(OC(=O)OCCCCC(C)C)c2C3=O)C1` [Example 154, (3′S,5S,7′R)-10′-((2,4-difluorobenzyl)carbamoyl)-3,3′-dimethyl-1′,11′-dioxo-1′,4′,5′,11′-tetrahydro-3′H,4H,7′H-spiro[isoxazole-5,6′-[2,7]methanopyrido[1,2-a][1,4]diazonin]-12′-yl (5-methylhexyl) carbonate], for which, in the data set with HIV-1 (IIIB), the EC50 is 1.72 nM. For the same molecule, the CC50 at 5 days in data set [1] was 17.2 µM.
For `COC1=NO[C@@]2(CC[C@H](C)N3C[C@H]2n2cc(C(=O)NCc4ccc(F)cc4F)c(=O)c(OC(=O)OCCCCC(C)C)c2C3=O)C1` [Example 155, (3′S,5S,7′R)-10′-((2,4-difluorobenzyl)carbamoyl)-3-methoxy-3′-methyl-1′,11′-dioxo-1′,4′,5′,11′-tetrahydro-3′H,4H,7′H-spiro[isoxazole-5,6′-[2,7]methanopyrido[1,2-a][1,4]diazonin]-12′-yl (5-methylhexyl) carbonate], in that order: 1.19 nM and 17.5 µM.
For `CC1=NO[C@@]2(CC[C@H](C)N3C[C@H]2n2cc(C(=O)NCc4ccc(F)cc4F)c(=O)c(OC(=O)OCCCCCC(C)C)c2C3=O)C1` [Example 156, (3′S,5S,7′R)-10′-((2,4-difluorobenzyl)carbamoyl)-3,3′-dimethyl-1′,11′-dioxo-1′,4′,5′,11′-tetrahydro-3′H,4H,7′H-spiro[isoxazole-5,6′-[2,7]methanopyrido[1,2-a][1,4]diazonin]-12′-yl (6-methylheptyl) carbonate], in that order: 2 nM and 14.7 µM.
For the molecule `COC1=NO[C@@]2(CC[C@H](C)N3C[C@H]2n2cc(C(=O)NCc4ccc(F)cc4F)c(=O)c(OC(=O)OCCCCCC(C)C)c2C3=O)C1` [Example 157, (3′S,5S,7′R)-10′-((2,4-difluorobenzyl)carbamoyl)-3-methoxy-3′-methyl-1′,11′-dioxo-1′,4′,5′,11′-tetrahydro-3′H,4H,7′H-spiro[isoxazole-5,6′-[2,7]methanopyrido[1,2-a][1,4]diazonin]-12′-yl (6-methylheptyl) carbonate], in the data set on HIV-1 (IIIB), the EC50 was 2.33 nM. Further, the CC50 at 5 days in data set [1] was 15.4 µM.

(Values after patent US20250122219A1 (priority 2023, published 2025).)
